Assay results reported in patent US11089783B2, “2-(het)aryl-substituted fused heterocycle derivatives as pesticides” (Bayer Aktiengesellschaft, priority 2017, dated 2021).

Experiments:
Assay type in all cases: in vivo
[1] = test system: Myzus persicae; assay: Myzus persicae oral test; details: 120 h, after 5 days, read-out: efficacy
Protocol: [table] To produce a suitable active ingredient formulation, 1 part by weight of active ingredient is dissolved with the stated parts by weight of solvent and made up to the desired concentration with water. 50 μl of the active ingredient preparation are transferred into microtitre plates and made up to a final volume of 200 μl with 150 μl of IPL41 insect medium (33%+15% sugar). Subsequently, the plates are sealed with parafilm, which a mixed population of green peach aphids (Myzus persicae) within a second microtitre plate is able to puncture and imbibe the solution. After 5 days, the efficacy in % is determined. 100% means that all the aphids have been killed; 0% means that no aphids have been killed.

[2] = test system: Myzus persicae; assay: Myzus persicae spray test (MYZUPE), Chinese cabbage leaf discs; details: Myzus persicae, foliar, 120 h
Protocol: (§1) [table] To produce a suitable active ingredient formulation, 1 part by weight of active ingredient is dissolved with the specified parts by weight of solvent and made up to the desired concentration with water containing an emulsifier concentration of 1000 ppm. To produce further test concentrations, the formulation is diluted with emulsifier-containing water. Discs of Chinese cabbage leaves (Brassica pekinensis) infested by all stages of the green peach aphid (Myzus persicae) are sprayed with an active ingredient formulation of the desired concentration. After 5 days, the efficacy in % is determined. 100% means that all the aphids have been killed; 0% means that no aphids have been killed. [table] To produce an appropriate active ingredient formulation, 1 part by weight of active ingredient is dissolved with the stated parts by weight of solvent and made up with water containing an emulsifier concentration of 1000 ppm until the desired concentration is attained. For production of further test concentrations, the mixture is diluted with emulsifier-containing water. Discs of chinese cabbage leaves (Brassica pekinensis) infested by all stages of the green peach aphid (Myzus persicae) are sprayed with an active ingredient formulation of the desired concentration. After the desired time, the efficacy in % is determined. 100% means that all aphids have been killed; 0% means that no aphids have been killed.

[3] = test system: Meloidogyne incognita; assay: Meloidogyne incognita test (MELGIN); details: Meloidogyne incognita, 336 h, 14 days (14 dat), read-out: efficacy (nematicidal, gall formation)
Protocol: [table] To produce a suitable active ingredient formulation, 1 part by weight of active ingredient is mixed with the stated amount of solvent and the concentrate is diluted to the desired concentration with water. Vessels are filled with sand, active ingredient solution, an egg/larvae suspension of the southern root-knot nematode (Meloidogyne incognita) and lettuce seeds. The lettuce seeds germinate and the plants develop. The galls develop on the roots. After 14 days, the nematicidal efficacy in % is determined by the formation of galls. 100% means that no galls were found; 0% means that the number of galls on the treated plants corresponds to the untreated control. [table] To produce an appropriate active ingredient formulation, 1 part by weight of active ingredient is mixed with the specified amount of solvent and the concentrate is diluted to the desired concentration with water. Vessels are filled with sand, active ingredient solution, an egg/larvae suspension of the southern root-knot nematode (Meloidogyne incognita) and lettuce seeds. The lettuce seeds germinate and the plants develop. The root-knots develop on the roots. After the desired time, the nematicidal effect is determined from the formation of root-knots in %. 100% means that no root-knots were found; 0% means that the number of root-knots on the treated plants corresponds to that on the untreated control.

[4] = test system: Phaedon cochleariae; assay: Phaedon cochleariae spray test (PHAECO), Chinese cabbage leaf discs; details: Phaedon cochleariae, foliar, 168 h; for pest or weed control at 100 g/ha: 7 days (7 dat), read-out: efficacy
Protocol: as §1, with “pekinensis)” for “pekinensis) infested by all stages of the green peach aphid (Myzus persicae)”, “concentration and, after drying, populated with larvae of the mustard beetle (Phaedon cochleariae).” for “concentration.”, “7” for “5”, “beetle larvae” for “aphids”

[5] = test system: Lucilia cuprina; assay: Lucilia cuprina test; details: 48 h, L1 larvae, after 2 days, read-out: efficacy (kill)
Protocol: Solvent: dimethyl sulfoxide To produce a suitable active ingredient formulation, 10 mg of active ingredient are mixed with 0.5 ml of dimethyl sulfoxide, and the concentrate is diluted with water to the desired concentration. About 20 L1 larvae of the Australian sheep blowfly (Lucilia cuprina) are transferred into a test vessel containing minced horsemeat and the active ingredient formulation of the desired concentration. After 2 days, the kill in % is determined. 100% means that all the larvae have been killed; 0% means that no larvae have been killed.

[6] = test system: Ctenocephalides felis; assay: Ctenocephalides felis in vitro contact test with adult cat fleas; details: 5 μg/cm^2 (=500 g/ha), after 48 h
Protocol: For the coating of the test tubes, 9 mg of active ingredient are first dissolved in 1 ml of acetone p.a. and then diluted to the desired concentration with acetone p.a. 250 μl of the solution are distributed homogeneously on the inner walls and the base of a 25 ml glass tube by turning and rocking on an orbital shaker (rocking rotation at 30 rpm for 2 h). With 900 ppm of active ingredient solution and internal surface area 44.7 cm^2, given homogeneous distribution, an area-based dose of 5 μg/cm^2 is achieved. After the solvent has evaporated off, the tubes are populated with 5-10 adult cat fleas (Ctenocephalides felis), sealed with a perforated plastic lid and incubated in a horizontal position at room temperature and ambient humidity. After 48 h, efficacy is determined. To this end, the tubes are stood upright and the fleas are knocked to the base of the tube. Fleas which remain motionless at the base or move in an uncoordinated manner are considered to be dead or moribund. […] 100% efficacy means that all the fleas were dead or moribund. 0% efficacy means that no fleas were harmed.

[7] = test system: Ctenocephalides felis; assay: Ctenocephalides felis oral test; details: 100 ppm, after 2 days
Protocol: Solvent: dimethyl sulfoxide To produce a suitable active ingredient formulation, 10 mg of active ingredient are mixed with 0.5 ml of dimethyl sulfoxide. Dilution with citrated cattle blood gives the desired concentration. About 20 unfed adult cat fleas (Ctenocephalides felis) are placed into a chamber which is closed at the top and bottom with gauze. A metal cylinder whose bottom end is closed with parafilm is placed onto the chamber. The cylinder contains the blood/active ingredient formulation, which can be imbibed by the fleas through the parafilm membrane. After 2 days, the kill in % is determined. 100% means that all of the fleas have been killed; 0% means that none of the fleas have been killed.

[8] = test system: Musca domestica; assay: Musca domestica test; details: 100 ppm, adult houseflies, after 2 days
Protocol: Solvent: dimethyl sulfoxide To produce a suitable active ingredient formulation, 10 mg of active ingredient are mixed with 0.5 ml of dimethyl sulfoxide, and the concentrate is diluted with water to the desired concentration. Vessels containing a sponge treated with sugar solution and the active ingredient formulation of the desired concentration are populated with 10 adult houseflies (Musca domestica). After 2 days, the kill in % is determined. 100% means that all of the flies have been killed; 0% means that none of the flies have been killed.

[9] = test system: Myzus persicae; assay: Myzus persicae spray test (MYZUPE S), bell pepper plants; details: 144 h, 6 dat, read-out: % efficacy
Protocol: [table] To produce an appropriate active ingredient formulation, 1 part by weight of active ingredient is dissolved with the specified parts by weight of solvent and made up with water containing an emulsifier concentration of 1000 ppm until the desired concentration is attained. To produce further test concentrations, the mixture is diluted with emulsifier-containing water. If addition of ammonium salts or/and penetrants is required, these are each added to the preparation solution in a concentration of 1000 ppm. Bell pepper plants (Capsicum annuum) severely infested by the green peach aphid (Myzus persicae) are treated by spraying with the active ingredient formulation in the desired concentration. After the desired time, the kill in % is determined. 100% means that all the animals have been killed; 0% means that no animals have been killed.

[10] = test system: Tetranychus urticae; assay: Tetranychus urticae spray test, OP-resistant (TETRUR); details: Tetranychus urticae, 144 h; TETRUR, 100 g/ha, 6 dat; read-out: % efficacy
Protocol: [table] To produce a suitable active ingredient formulation, 1 part by weight of active ingredient is dissolved with the specified parts by weight of solvent and made up to the desired concentration with water containing an emulsifier concentration of 1000 ppm. To produce further test concentrations, the formulation is diluted with emulsifier-containing water. Discs of bean leaves (Phaseolus vulgaris) infested with all stages of the greenhouse red spider mite (Tetranychus urticae) are sprayed with an active ingredient formulation of the desired concentration. After 6 days, the efficacy in % is determined. 100% means that all the spider mites have been killed; 0% means that no spider mites have been killed.

[11] = test system: Myzus persicae; assay: Myzus persicae drench test (MYZUPE D), savoy cabbage plants; details: soil, 240 h, 10 dat, read-out: % efficacy
Protocol: [table] To produce an appropriate active ingredient formulation, 1 part by weight of active ingredient is mixed with the specified amounts of solvent and emulsifier and the concentrate is diluted to the desired concentration with water, it being necessary to take into account the volume of soil into which drenching is effected. It should be ensured that a concentration of 40 ppm of emulsifier in the soil is not exceeded. For production of further test concentrations, the mixture is diluted with water. Savoy cabbage plants (Brassica oleracea) in soil pots, infested by all stages of the green peach aphid (Myzus persicae), are drenched with an active ingredient formulation of the desired concentration. After the desired time, the efficacy in % is determined. 100% means that all the aphids have been killed; 0% means that no aphids have been killed.

[12] = test system: Nezara viridula; assay: Nezara viridula spray test (NEZARA / NEZAVI); details: Nezara viridula, 96 h, 4 dat, read-out: % efficacy
Protocol: [table] To produce an appropriate active ingredient formulation, 1 part by weight of active ingredient is dissolved with the specified parts by weight of solvent and made up with water containing an emulsifier concentration of 1000 ppm until the desired concentration is attained. To produce further test concentrations, the mixture is diluted with emulsifier-containing water. If addition of ammonium salts or/and penetrants is required, these are each added to the preparation solution in a concentration of 1000 ppm. Barley plants (Hordeum vulgare) infected with larvae of the southern green shield bug (Nezara viridula) are sprayed with an active ingredient formulation of the desired concentration. After the desired time, the efficacy in % is determined. 100% means that all bugs have been killed; 0% means that no bugs have been killed.

[13] = test system: Aphis gossypii; assay: Aphis gossypii spray test (APHIGO), cotton plants; details: Aphis gossypii, 144 h, 20 ppm, 6 dat, read-out: % efficacy
Protocol: [table] To produce an appropriate active ingredient formulation, 1 part by weight of active ingredient is dissolved with the specified parts by weight of solvent and made up with water containing an emulsifier concentration of 1000 ppm until the desired concentration is attained. To produce further test concentrations, the mixture is diluted with emulsifier-containing water. If addition of ammonium salts or/and penetrants is required, these are each added to the preparation solution in a concentration of 1000 ppm. Cotton plants (Gossypium hirsutum) severely infested by the cotton aphid (Aphis gossypii) are sprayed with an active ingredient formulation of the desired concentration. After the desired time, the kill in % is determined. 100% means that all aphids have been killed; 0% means that no aphids have been killed.

[14] = 5 days (5 dat), read-out: efficacy

Structure (SMILES)	pest or weed control at 0.8 ppm [1] [%]	pest or weed control at 100 g/ha [2, 14] [%]	pest or weed control at 100 g/ha [4] [%]	percent efficacy (larval mortality) at a fixed application rate at 20 g/ha ([4]; PHAECO, 20 g/ha, 7 dat) [%]	pest or weed control at 100 ppm [5] [%]	efficacy [6] [%]	efficacy (kill) [7] [%]	other results
CN(C)C(=O)Nc1ccc(S(C)(=O)=O)c(-c2nc3cc(C(F)(F)C(F)(F)F)nnc3n2C)n1 [Example I-12]	100	90	100	100	100	100	100	pest or weed control at 20 g/ha ([2]; 20 g/ha, 5 days (5 dat), read-out: efficacy): 90%; pest or weed control at 20 ppm [3]: 100%
CCNC(=O)c1ccc(S(=O)(=O)CC)c(-c2nc3cc(C(F)(F)C(F)(F)F)nnc3n2C)n1 [Example I-04, N-ethyl-5-(ethylsulfonyl)-6-[7-methyl-3-(pentafluoroethyl)-7H-imidazo[4,5-c]pyridazin-6-yl]pyridine-2-carboxamide]	100	100	100	–	100	–	–	efficacy (kill) [8]: 80%
CCS(=O)(=O)c1ccc(N(C)C(=O)NC)nc1-c1nc2cc(C(F)(F)F)nnc2n1C [reference compound]	–	–	–	33	–	–	–	Emax at 4 g/ha ([2]; MYZUPE, 4 g/ha, 5 dat, read-out: % efficacy): 0%; Emax at 4 g/ha ([4]; PHAECO, 4 g/ha, 7 dat, read-out: % efficacy): 0%; Emax at 0.16 ppm ([9]; 0.16 ppm): 20%; Emax at 0.8 ppm ([9]; 0.8 ppm): 65%; Emax at 100 g/ha [10]: 0%; Emax at 0.16 ppm ([11]; 0.16 ppm): 0%; Emax at 4 g/ha ([12]; 4 g/ha): 0%
CNC(=O)Nc1ccc(S(C)(=O)=O)c(-c2nc3cc(C(F)(F)C(F)(F)F)nnc3n2C)n1 [Example I-11]	100	–	100	–	100	100	100	Emax at 20 ppm [13]: 95%; Emax at 20 g/ha ([4]; PHAECO, 20 g/ha, 7 dat, read-out: % efficacy): 83%; Emax at 0.8 ppm ([11]; 0.8 ppm): 95%; Emax at 4 ppm ([11]; 4 ppm): 98%; Emax at 20 g/ha ([12]; 20 g/ha): 100%
